Source: patent publication US10022366B2, “Extending and maintaining micropore viability of microneedle treated skin with lipid biosynthesis inhibitors for sustained drug delivery” (University of Maryland, Baltimore, priority 2013, dated 2018)

Test: Reversibility/recovery of pores by transepidermal water loss (TEWL)
Type: in vivo, hairless guinea pigs (HGP)
Details: following 7-day treatment with FLU in vivo
Excerpt: The reversibility/recovery of the pores following removal of occlusion was studied using transepidermal water loss (TEWL) in a HGP model. Five different sites were chosen on the dorsal region of an animal. […] All sites were marked and cleaned on the day of the treatment. […] The concentration and amount of NTX gel and FLU were consistent with the PK studies. A placebo gel was used for site 3 and site 4. The placebo gel was similar in composition to the NTX gel with 10% PG, 1% benzyl alcohol and 3% HEC as the gelling agent. […] All sites were occluded using a transdermal patch (148) secured in place with Bioclusive™ tape. […] All experiments were conducted at least in triplicate. Recovery of the skin, (i.e., regeneration of the barrier function of the SC) was studied using TEWL. These studies were carried out to look at the effect of the local concentration of FLU on the recovery/healing of the skin following removal of occlusion.

Structure (SMILES): CC(C)n1c(/C=C/C(O)CC(O)CC(=O)O)c(-c2ccc(F)cc2)c2ccccc21 (stereo not shown) [FLU, fluvastatin sodium]
- time of recovery/healing of skin upon removal of occlusion: 45 min
